Measurements published in patent US12377077B2, “Methods and formulations to treat mitochondrial dysfunction” (The Board of Trustees of the Leland Stanford Junior …, priority 2018, dated 2025).
Entries after “also recorded” stand apart in the source; their conditions may differ.

Assays:
Type in all cases: cell-based, human
pAMPK [1] = experiment: pAMPK western blot time course in SURF1 deficient fibroblasts
Procedure: (§1) Methods: Western blotting was performed to identify pAMPK levels in cells treated with PT1. Cells were lysed with RIPA buffer supplemented with Na-Orthovanadate, PMSF, and Protease Inhibitor cocktail. Whole cell extracts were fractionated by SDS-PAGE and transferred to a polyvinylidene difluoride membrane using a transfer apparatus according to the manufacturer's protocols (Bio-Rad). After incubation with 5% nonfat milk in TBST (10 mM Tris, pH 8.0, 150 mM NaCl, 0.5% Tween 20) for 60 min, the membrane was washed once with TBST and incubated with antibodies against AMPK (1:1,000), pAMPK (1:1,000), actin (1:10,000) at 4° C. overnight. Membranes were washed three times for 5 min and incubated with a 1:10,000 dilution of horseradish peroxidase-conjugated anti-mouse or anti-rabbit antibodies for 2 h. Blots were washed with TBST three times and developed with the ECL system (Thermo Scientific) according to the manufacturer's protocols.

pAMPK [2] = experiment: pAMPK western blot after siRNA knockdown of PRKAA1 in COX10 deficient fibroblasts; details: siAMPK+PT1 compared to siCNT+PT1
Procedure: as §1, with “Membranes were washed three times for 5 min and incubated with a 1:10,000 dilution of horseradish peroxidase-conjugated anti-mouse or anti-rabbit antibodies for 2 h. Blots were washed with TBST three times and developed with the ECL system (Thermo Scientific) according to the manufacturer's protocols.” left out
To test whether the cellular response to PT1 is a result of AMPK activation itself, or is merely a result of nonspecific interactions, an siRNA knockdown strategy was used. siRNA for PRKAA1 (s101) and a negative control (Life Technologies) were incubated with Hiperfect reagent (Qiagen) in media containing DMEM, 1% Penicillin-Streptomycin (10,000 U/mL) (Life Technologies), 1% glutaMAX (Life Technologies) but no serum and allowed to complex for 10 min at room temperature. […] At the end of the incubation period, the cells were analyzed for levels of AMPK and pAMPK by western blot analysis (see protocol above) or incubated for six additional days with PT1 (or DMSO as untreated control) and assessed for viability by Calcein AM. […]

[3] = system: POLG deficient fibroblasts; experiment: ROS levels, CellROX Deep Red Flow Cytometry Assay; details: PT1 72 hrs vs DMSO
Procedure: (§2) Methods: SURF1, POLG, and NGLY1 patient cells were supplemented with PT1 or DMSO (untreated control) for 48 hrs (n=3) and ATP levels measured by the CellTiter-Glo ATP Assay or for 72 hrs (n=3) and ROS levels were measured by the CellROX Deep Red Flow Cytometry Assay. Results were normalized to total protein concentration. Data are represented as the mean±standard error of the mean. Statistical significance was measured to p<0.05.

[4] = system: SURF1 deficient fibroblasts; experiment: ROS levels, CellROX Deep Red Flow Cytometry Assay; details: PT1 72 hrs vs DMSO
Procedure: as §2

[5] = system: NGLY1 deficient fibroblasts; experiment: ROS levels, CellROX Deep Red Flow Cytometry Assay; details: PT1 72 hrs vs DMSO
Procedure: as §2

CI-deficient fibroblasts = experiment: Cell viability by Calcein AM in mitochondrial stressor media; details: FIG. 2C
Procedure: (§3) Fibroblasts previously derived from four patients with primary mitochondrial disease (Surf1, Complex I, Cox10, Polg), three patients with NGLY1 deficiency and four normal controls were used for the study. All samples were obtained with informed consent and approved by the Stanford IRB. Fibroblasts were maintained in DMEM medium containing 8.3 mM glucose and supplemented with 10% fetal bovine serum (FBS)(Fisher Scientific), 1% Penicillin-Streptomycin (10,000 U/mL)(Life Technologies), 1% glutaMAX (Life Technologies), 1% uridine (5 mg/ml) and 1% pyruvate (11 mg/ml) at 37° C., 5% CO2.
(§4) For the screening of various compounds, 15×10^3 cells/500 ul media were seeded in quadruplets on 24 well microtiter plates. The following day, the medium was removed, wells washed with PBS and replaced with a mitochondrial stressor media containing DMEM, 1% Penicillin-Streptomycin (10,000 U/mL)(Life Technologies), 10% FCS (Fisher Scientific), 1 mM Galactose (Sigma Aldrich), and 25 μM sodium azide with or without the following compounds: 1 mM AICAR (Medchem Express), 1 mM Metformin (Sigma Aldrich), 100 μM PT1 (Santa Cruz Biotechnology), 100 μM A-769662 (Medchem Express), 100 μM C24 (Medchem Express). Following treatment with the various compounds, tissue cultures were analyzed for growth, oxygen consumption rate, and ATP levels.
(§5) Methods: Cell growth was measured by a fluorometric method using Calcein AM (Anaspec). Mitochondrial stressor media was removed, wells washed with PBS and then incubated with 500 ul/well of 800 nM Calcein AM in PBS for 30 min at 37 C, 5% CO2. Cell viability was measured by values obtained using a 485 nm excitation with the Flouroskan Ascent Microplate Fluorometer (Thermo Scientific).

[6] = system: NGLY1 deficient fibroblasts; experiment: as above; details: NGLY-1 deficient fibroblasts from three individuals; +PT1 vs −PT1; FIG. 2E
Procedure: as §3, §4, §5

[7] = system: NGLY1 deficient fibroblasts; experiment: Oxygen consumption rate (OCR), XF96 extracellular flux analyzer; details: PT1 vs DMSO, FIG. 6C
Procedure: Methods: Oxygen consumption rate (OCR) was measured using an XF96 extracellular flux analyzer (Seahorse Biosciences). Fibroblasts were seeded at 10×10^3 cell/well in 100 ul media containing 8.3 mM glucose and supplemented with 10% fetal bovine serum (FBS) (Fisher Scientific), 1% Penicillin-Streptomycin (10,000 U/mL)(Life Technologies), 1% glutaMAX (Life Technologies), 1% uridine (5 mg/ml) and 1% pyruvate (11 mg/ml) on an XF 96 well plate at 37° C., 5% CO2. The following day the medium was replaced with the mitochondrial stressor media (details above) with or without PT1, A-769662, and AICAR. After 48 hours the stressor media was replaced with 175 μl unbuffered XF base DMEM medium (Fisher Scientific) with the same constituents as the mitochondrial stressor medium and incubated at 37° C. for 30 min for equilibrium before the measurements. OCR Baseline measurements were measured three times, once every five minutes. After the experiment, cell content was estimated by Calcein AM fluorescence intensity (FI) and OCR was calculated as OCR divided by FI.

[8] = system: COX10 deficient fibroblasts; experiment: Cell viability (Calcein AM) in siRNA knockdown study; details: PT1 alone and siCNT+PT1 vs DMSO and siAMPK+PT1; FIG. 4B
Procedure: as §5
To test whether the cellular response to PT1 is a result of AMPK activation itself, or is merely a result of nonspecific interactions, an siRNA knockdown strategy was used. siRNA for PRKAA1 (s101) and a negative control (Life Technologies) were incubated with Hiperfect reagent (Qiagen) in media containing DMEM, 1% Penicillin-Streptomycin (10,000 U/mL) (Life Technologies), 1% glutaMAX (Life Technologies) but no serum and allowed to complex for 10 min at room temperature. […] At the end of the incubation period, the cells were analyzed for levels of AMPK and pAMPK by western blot analysis (see protocol above) or incubated for six additional days with PT1 (or DMSO as untreated control) and assessed for viability by Calcein AM. COX10-deficient fibroblasts were treated with PT1 and either siAMPK or siCNT, and responses were evaluated for pAMPK protein expression by western blotting (FIG. 4A), cell viability by Calcein AM fluorescence assay (FIG. 4B), and cell morphology by phase contrast microscopy (FIGS. 4C-4F)

Cc1cc(-c2ccc(C=C3SC(=S)N(c4ccc(Cl)c(C(=O)O)c4)C3=O)o2)c([N+](=O)[O-])cc1C [PT1]
time of peak pAMPK levels post PT1 treatment (pAMPK [1]): 24 hours | time of return of pAMPK levels to baseline (pAMPK [1]): 48 hours | time by which pAMPK levels increase post PT1 treatment (pAMPK [1]; pAMPK normalized to actin): ≤ 2 hours | decrease in pAMPK levels (pAMPK [2]): 63% | reduction in ROS levels [3]: 15% | reduction in ROS levels [4]: 10% | reduction in ROS levels [5]: 18% | survival / viability (CI-deficient fibroblasts): improves survival; also recorded: significantly improved survival | improvement in viability [6]: ≤ 60% and up to 60% | improvement in basal respiration (basal OCR) [7]: 16% | cell viability [8]: increased viability
